Experimental data published in paper PMC6985936, “2-Amino-2,3-dihydro-1H-indene-5-carboxamide-Based Discoidin Domain Receptor 1 (DDR1) Inhibitors: Design, Synthesis, and in Vivo Antipancreatic Cancer Efficacy” (Journal of Medicinal Chemistry, 2019).
Like-named read-outs stand apart in the source and are kept apart here.

Columns and labels:
[1] = SD rats
Description: (§1) All animal studies were performed according to the protocols and guidelines of the institutional care and use committee. The 4–6 week old male Sprague-Dawley rats were purchased from the Shanghai Laboratory Animal Research Center (Shanghai, China). All of the procedures related to animal handling, care, and treatment in this article were performed in compliance with Agreement of the Ethics Committee on Laboratory Animal Care and the Guidelines for the Care and Use of Laboratory Animals in Shanghai, China. […] The compound was dissolved in the solution containing 2% DMSO, 4% ethanol, 4% castor oil, and 90% ddH2O. Pharmacokinetic properties of SD rats (male) were determined following intravenous (iv) and oral administration. Animals were randomly distributed into two experimental groups (n = 3). The oral groups were given 25 mg/kg by gastric gavage. The other group was dosed by injection into the tail vein (5 mg/kg). […] Whole blood samples were collected in heparinized tubes. The plasma fraction was immediately separated by centrifugation (8000 rpm, 6 min, 4 °C) and stored at −20 °C until liquid chromatography–mass spectrometry analysis. […] The pharmacokinetics parameters were calculated by analyzing the compound concentration in plasma samples using the pharmacokinetic software DAS.2.0.

in vivo = conditions: male, Sprague-Dawley, rat, plasma, po, 25 mg/kg
Description: as §1

T1/2 ([1]; iv 5 mg/kg): 0.9 h | Tmax ([1]; iv 5 mg/kg): 0.083 h | T1/2 ([1]; po 25 mg/kg): 1.7 h | Tmax ([1]; po 25 mg/kg): 4.0 h | AUC(0–∞) ([1]; po 25 mg/kg, 25 mg/kg): 80 535 μg/(L h) | bioavailability (in vivo): 89.9%
SMILES: Cc1cn(-c2cc(NC(=O)c3ccc4c(c3)C[C@H](N(C)c3cncnc3)C4)cc(C(F)(F)F)c2)cn1 [7f, (R)-2-(Methyl(pyrimidin-5-yl)amino)-N-(3-(4-methyl-1H-imidazol-1-yl)-5-(trifluoromethyl)phenyl)-2,3-dihydro-1H-indene-5-carboxamide]
